Measured values: ChEMBL document CHEMBL1154899, “Synthesis and biological evaluation of caffeic acid 3,4-dihydroxyphenethyl ester” (J Nat Prod, 2010)

Assays:
Type in all cases: functional
OVCAR-4 [1] = assay: Antiproliferative activity against human OVCAR4 cells assessed as cell growth at 0.5 uM by SRB assay; conditions: read-out: Activity
SK-MEL-28 = assay: Antiproliferative activity against human SK-MEL-28 cells assessed as cell growth at 50 uM by SRB assay; conditions: read-out: Activity
RXF 393 = assay: Antiproliferative activity against human RXF393 cells assessed as cell growth at 500 uM by SRB assay; conditions: read-out: Activity
MOLT-4 = assay: Antiproliferative activity against human MOLT4 cells assessed as cell growth at 0.5 uM by SRB assay; conditions: read-out: Activity
HOP-92 = assay: Antiproliferative activity against human HOP92 cells by SRB assay
T47D = assay: Antiproliferative activity against human T47D cells by SRB assay
NCI-H226 = assay: Antiproliferative activity against human NCI-H226 cells assessed as cell growth at 0.5 uM by SRB assay; conditions: read-out: Activity
HL-60(TB) = assay: Antiproliferative activity against human HL-60(TB) cells assessed as cell growth at 50 uM by SRB assay; conditions: read-out: Activity
NCI-H23 = assay: Antiproliferative activity against human NCI-H23 cells assessed as cell growth at 0.5 uM by SRB assay; conditions: read-out: Activity
KM12 = assay: Antiproliferative activity against human KM12 cells assessed as cell growth at 0.5 uM by SRB assay; conditions: read-out: Activity
OVCAR-4 [2] = assay: Antiproliferative activity against human OVCAR4 cells assessed as cell growth at 5 uM by SRB assay; conditions: read-out: Activity
SNB-19 [3] = assay: Antiproliferative activity against human SNB19 cells assessed as cell growth at 50 uM by SRB assay; conditions: read-out: Activity
SNB-19 [4] = assay: Antiproliferative activity against human SNB19 cells assessed as cell growth at 5 uM by SRB assay; conditions: read-out: Activity
A549 = assay: Antiproliferative activity against human A549 cells assessed as cell growth at 5 uM by SRB assay; conditions: read-out: Activity
786-0 = assay: Antiproliferative activity against human 786-0 cells assessed as cell growth at 500 uM by SRB assay; conditions: read-out: Activity
SF-295 = assay: Antiproliferative activity against human SF295 cells assessed as cell growth at 5 uM by SRB assay; conditions: read-out: Activity
NCI/ADR-RES [5] = assay: Antiproliferative activity against human NCI/ADR-RES cells assessed as cell growth at 50 uM by SRB assay; conditions: read-out: Activity
NCI/ADR-RES [6] = assay: Antiproliferative activity against human NCI/ADR-RES cells by SRB assay
MDA-MB-231 = assay: Antiproliferative activity against human MDA-MB-231 cells assessed as cell growth at 500 uM by SRB assay; conditions: read-out: Activity
[7] = read-out: LC50 (the source's name)
[8] = read-out: pLC50 (the source's name) (converted)

`O=C(/C=C/c1ccc(O)c(O)c1)OCCc1ccc(O)c(O)c1` was tested, and the growth at 0.5 µM (OVCAR-4 [1]) was 99%, the growth at 50 µM (SK-MEL-28) was 93% and the growth at 500 µM (RXF 393) was 89%. The growth at 0.5 µM (MOLT-4) was 101%, the GI50 (HOP-92; read-out: GI50) was 0.79 µM and the CC50 (HOP-92; [7]) was > 50 µM. The TGI (HOP-92; read-out: TGI) was 16.8 µM, the GI50 (HOP-92; read-out: pGI50 (converted)) was 0.794 µM and the CC50 (HOP-92; [8]) was > 50.1 µM. The TGI (HOP-92; read-out: pTGI (converted)) was 17 µM, the GI50 (T47D; read-out: GI50) was 11.3 µM and the CC50 (T47D; [7]) was > 50 µM. For the same compound, the TGI (T47D; read-out: TGI) was > 50 µM, the GI50 (T47D; read-out: pGI50 (converted)) was 11.2 µM and the CC50 (T47D; [8]) was > 50.1 µM. The TGI (T47D; read-out: pTGI) was > 50.1 µM, the growth at 0.5 µM (NCI-H226) was 97% and the growth at 50 µM (HL-60(TB)) was 82%. It also gave a growth at 0.5 µM (NCI-H23) of 90%, a growth at 0.5 µM (KM12) of 97% and a growth at 5 µM (OVCAR-4 [2]) of 95%. The growth at 50 µM (SNB-19 [3]) was 94%, the growth at 5 µM (SNB-19 [4]) was 95% and the growth at 5 µM (A549) was 97%. The growth at 500 µM (786-0) was 81%, the growth at 5 µM (SF-295) was 89% and the growth at 50 µM (NCI/ADR-RES [5]) was 99%. The GI50 (NCI/ADR-RES [6]; read-out: GI50) was 10.9 µM, the CC50 (NCI/ADR-RES [6]; [7]) was > 50 µM and the TGI (NCI/ADR-RES [6]; read-out: TGI) was 44.9 µM. The GI50 (NCI/ADR-RES [6]; read-out: pGI50 (converted)) was 10.5 µM, the CC50 (NCI/ADR-RES [6]; [8]) was > 50.1 µM and the TGI (NCI/ADR-RES [6]; read-out: pTGI (converted)) was 44.7 µM. The growth at 500 µM (MDA-MB-231) was 85%.
